Measurements taken from patent publication US4439426A, “Semisynthetic macrolidic antibiotics, intermediate compounds for their preparation and related pharmaceutical compositions containing them” (priority 1981, dated 1984).
In brackets after ≈: the same amount, converted by molar mass.

Tests used:
[1] = test system: Streptococcus faecalis LRP 7; experiment: Bacteriostatic power in solid medium (MIC); type: cell-based; settings: Enterococcus faecalis, LRP7, read-out: Minimum inhibiting concentration
Description: (§1) the bacteriostatic power, expressed as the minimum inhibiting concentration (MIC) against both aerobic and anaerobic, Gram positive and Gram negative, bacterial stocks: the related results are reported in the tables 2 and 3.

[2] = test system: Proteus vulgaris ATCC 6380 LRP 13; experiment: Bacteriostatic power in solid medium (MIC); type: cell-based; settings: Proteus vulgaris, ATCC6380, read-out: Minimum inhibiting concentration
Description: as §1

[3] = test system: Fusobacteriumnecrophroum ATCC 27852 LRP 210; experiment: Bacteriostatic power in solid medium (MIC); type: cell-based; settings: read-out: Minimum inhibiting concentration
Description: as §1

[4] = test system: Mycoplasma hominis I ATCC 14027 LRP 211; experiment: Bacteriostatic power in solid medium (MIC); type: cell-based; settings: Metamycoplasma hominis, ATCC14027, read-out: Minimum inhibiting concentration
Description: as §1

[5] = test system: Streptococcus pneumoniae ATCC 6303 LRP 53; experiment: Bacteriostatic power in solid medium (MIC); type: cell-based; settings: Streptococcus pneumoniae, ATCC6303, read-out: Minimum inhibiting concentration
Description: as §1

[6] = test system: Streptococcus pyogenes ATCC 8668 LRP 34; experiment: Bacteriostatic power in solid medium (MIC); type: cell-based; settings: Streptococcus pyogenes, ATCC8668, read-out: Minimum inhibiting concentration
Description: as §1

[7] = test system: Haemophilus influenzae ATCC 19418 LRP 213; experiment: Bacteriostatic power in solid medium (MIC); type: cell-based; settings: Haemophilus influenzae, ATCC19418, read-out: Minimum inhibiting concentration
Description: as §1

[8] = test system: Acholeplasma laidlawii ATCC 23206 LRP 204; experiment: Bacteriostatic power in solid medium (MIC); type: cell-based; settings: Acholeplasma laidlawii, ATCC23206, read-out: Minimum inhibiting concentration
Description: as §1

[9] = test system: Streptococcus pneumoniae ATCC 6303 LRP 35; experiment: Bacteriostatic power in solid medium (MIC); type: cell-based; settings: Streptococcus pneumoniae, ATCC6303, read-out: Minimum inhibiting concentration
Description: as §1

[10] = test system: Neisseria gonorrhoeae ATCC 19424 LRP 214; experiment: Bacteriostatic power in solid medium (MIC); type: cell-based; settings: Neisseria gonorrhoeae, ATCC19424, read-out: Minimum inhibiting concentration
Description: as §1

[11] = test system: Klelsiella pneumoniae LRP 54; experiment: Bacteriostatic power in solid medium (MIC); type: cell-based; settings: read-out: Minimum inhibiting concentration
Description: as §1

[12] = test system: Pseudomonas aeruginosa LRP 9; experiment: Bacteriostatic power in solid medium (MIC); type: cell-based; settings: Pseudomonas aeruginosa, LRP9, read-out: Minimum inhibiting concentration
Description: as §1

Bacillus subtilis LRP 25 = experiment: Bacteriostatic power in solid medium (MIC); type: cell-based; settings: Bacillus subtilis, LRP25, read-out: Minimum inhibiting concentration
Description: as §1

[13] = test system: Micrococcus luteus ATCC 9341 LRP 6; experiment: Bacteriostatic power in solid medium (MIC); type: cell-based; settings: Micrococcus luteus, ATCC9341, read-out: Minimum inhibiting concentration
Description: as §1

[14] = test system: Streptococcus pneumoniae ATCC 6303 LRP 52; experiment: Bacteriostatic power in solid medium (MIC); type: cell-based; settings: Streptococcus pneumoniae, ATCC6303, read-out: Minimum inhibiting concentration
Description: as §1

[15] = test system: Micrococcus luteus ATCC 15957 LRP 193; experiment: Bacteriostatic power in solid medium (MIC); type: cell-based; settings: Micrococcus luteus, ATCC15957, read-out: Minimum inhibiting concentration
Description: as §1

[16] = test system: Corynebacterium diphteriae LRP 24; experiment: Bacteriostatic power in solid medium (MIC); type: cell-based; settings: Corynebacterium, LRP24, read-out: Minimum inhibiting concentration
Description: as §1

[17] = test system: Streptococcus faecalis subsp. zymogenes ATCC 12958 LRP 61; experiment: Bacteriostatic power in solid medium (MIC); type: cell-based; settings: Enterococcus faecalis, ATCC12958, read-out: Minimum inhibiting concentration
Description: as §1

[18] = test system: Bacteroides fragilis ATCC 23745 LRP 205; experiment: Bacteriostatic power in solid medium (MIC); type: cell-based; settings: Bacteroides fragilis, ATCC23745, read-out: Minimum inhibiting concentration
Description: as §1

[19] = test system: Streptococcus pyogenes ATCC 8668 LRP 197; experiment: Bacteriostatic power in solid medium (MIC); type: cell-based; settings: Streptococcus pyogenes, ATCC8668, read-out: Minimum inhibiting concentration
Description: as §1

[20] = test system: Staphylococcus aureus ATCC 6538P LRP 39; experiment: Bacteriostatic power in solid medium (MIC); type: cell-based; settings: Staphylococcus aureus, ATCC6538P, read-out: Minimum inhibiting concentration
Description: as §1

Escherichia coli LRP 50 = experiment: Bacteriostatic power in solid medium (MIC); type: cell-based; settings: Escherichia coli, LRP50, read-out: Minimum inhibiting concentration
Description: as §1

[21] = test system: Staphylococcus aureus ATCC 14154 LRP 78; experiment: Bacteriostatic power in solid medium (MIC); type: cell-based; settings: Staphylococcus aureus, ATCC14154, read-out: Minimum inhibiting concentration
Description: as §1

[22] = test system: Staphylococcus aureus ATCC 6538P LRP 14; experiment: Bacteriostatic power in solid medium (MIC); type: cell-based; settings: Staphylococcus aureus, ATCC6538P, read-out: Minimum inhibiting concentration
Description: as §1

Shigella sonnei LRP 5 = experiment: Bacteriostatic power in solid medium (MIC); type: cell-based; settings: LRP5, read-out: Minimum inhibiting concentration
Description: as §1

Salmonella typhy LRP 8 = experiment: microbe, parasite or virus in culture; type: cell-based; settings: LRP8, solid medium, read-out: Minimum inhibiting concentration
Description: as §1

[23] = test system: Clostridium perfrigens ATCC 3624 LRP 206; experiment: microbe, parasite or virus in culture; type: cell-based; settings: ATCC3624, solid medium, anaerobic, read-out: Minimum inhibiting concentration
Description: as §1

[24] = Stability in acidic environment at 25° C. (half-life of initial microbiological activity); type: physicochemical; settings: aqueous solution
Description: Stability in acidic environnment at 25° C. of the novel
Note: t 1/2 represents the time for reducing to one half the initial powe
of the antibiotic determined by microbiological method through diffusion
on a plate using the test stock Microccocus luteus (Sarcina lutea) ATCC

[25] = test system: Streptococcus pyogenes ATCC 8668 LRP 34; experiment: Bacteriostatic power in liquid medium (MIC); type: cell-based; settings: Streptococcus pyogenes, ATCC8668, read-out: Minimum inhibiting concentration
Description: as §1

[26] = test system: Streptococcus faecalis subs. zymogenes ATCC 12958 LRP 61; experiment: Bacteriostatic power in liquid medium (MIC); type: cell-based; settings: Enterococcus faecalis, ATCC12958, read-out: Minimum inhibiting concentration
Description: as §1

[27] = test system: Streptococcus pneumoniae ATCC 6303 LRP 35; experiment: Bacteriostatic power in liquid medium (MIC); type: cell-based; settings: Streptococcus pneumoniae, ATCC6303, read-out: Minimum inhibiting concentration
Description: as §1

[28] = test system: Corynebacterium diphteriae LRP 24; experiment: Bacteriostatic power in liquid medium (MIC); type: cell-based; settings: Corynebacterium, LRP24, read-out: Minimum inhibiting concentration
Description: as §1

[29] = test system: Staphylococcus aureus ATCC 6538 P LRP 39; experiment: Bacteriostatic power in liquid medium (MIC); type: cell-based; settings: Staphylococcus aureus, ATCC6538, read-out: Minimum inhibiting concentration
Description: as §1

[30] = test system: Streptococcus faecalis subs. zymogenes LRP 61; experiment: Minimum bactericidal concentration (MBC); type: cell-based
Description: (§2) the bacterial power, expressed as the minimum bactericidal power (MBC) against some Gram positive aerobic stocks (table 5).

[31] = test system: Streptococcus pyogenes ATCC 8668 LRP 34; experiment: Minimum bactericidal concentration (MBC); type: cell-based
Description: as §2

[32] = test system: Streptococcus pneumoniae ATCC 6303 LRP 35; experiment: Minimum bactericidal concentration (MBC); type: cell-based
Description: as §2

[33] = test system: Corynebacterium diphteriae LRP 24; experiment: Minimum bactericidal concentration (MBC); type: cell-based
Description: as §2

[34] = test system: Staphylococcus aureus ATCC 6538 P LRP 39; experiment: Minimum bactericidal concentration (MBC); type: cell-based
Description: as §2

With `CC[C@H]1OC(=O)[C@H](C)[C@@H](O[C@H]2C[C@H](OC)[C@@H](O)[C@H](C)O2)[C@H](C)[C@@H](O[C@@H]2O[C@H](C)C[C@H](N(C)C)[C@H]2O)[C@](C)(O)C[C@](C)(F)C(=O)[C@H](C)[C@@H](O)[C@H]1C` [P-80204, 3-O-oleandrosyl-5-O-desosaminyl-(8S)-8-fluoroerythronolide B] the MIC [1] was 0.39 µg/mL (≈ 0.54 µM), the MIC [2] was 25 µg/mL (≈ 34.6 µM) and the MIC [3] was 12.5 µg/mL (≈ 17.3 µM). For the same compound, the MIC [4] was 25 µg/mL (≈ 34.6 µM), the MIC [5] was 0.049 µg/mL (≈ 0.0679 µM) and the MIC [6] was 0.049 µg/mL (≈ 0.0679 µM). For the same compound, the MIC [7] was 6.25 µg/mL (≈ 8.66 µM), the MIC [8] was 3.12 µg/mL (≈ 4.32 µM) and the MIC [9] was 0.049 µg/mL (≈ 0.0679 µM). It also gave an MIC [10] of 0.39 µg/mL (≈ 0.54 µM), an MIC [11] of 25 µg/mL (≈ 34.6 µM) and an MIC [12] of 25 µg/mL (≈ 34.6 µM). It also gave an MIC (Bacillus subtilis LRP 25) of 0.195 µg/mL (≈ 0.27 µM), an MIC [13] of 0.049 µg/mL (≈ 0.0679 µM) and an MIC [14] of 0.049 µg/mL (≈ 0.0679 µM). It also gave an MIC [15] of 25 µg/mL (≈ 34.6 µM), an MIC [16] of 0.049 µg/mL (≈ 0.0679 µM) and an MIC [17] of 0.39 µg/mL (≈ 0.54 µM). For the same compound, the MIC [18] was 3.12 µg/mL (≈ 4.32 µM), the MIC [19] was 0.049 µg/mL (≈ 0.0679 µM) and the MIC [20] was 0.39 µg/mL (≈ 0.54 µM). The MIC (Escherichia coli LRP 50) was 25 µg/mL (≈ 34.6 µM), the MIC [21] was 25 µg/mL (≈ 34.6 µM) and the MIC [22] was 0.39 µg/mL (≈ 0.54 µM). The MIC (Shigella sonnei LRP 5) was 25 µg/mL (≈ 34.6 µM), the MIC (Salmonella typhy LRP 8) was 25 µg/mL (≈ 34.6 µM) and the MIC [23] was 1.56 µg/mL (≈ 2.16 µM). For the same compound, the half-life ([24]; pH 2) was 25 h, the half-life ([24]; pH 3) was 100 h and the MIC [25] was 0.049 µg/mL (≈ 0.0679 µM). It also gave an MIC [26] of 0.39 µg/mL (≈ 0.54 µM), an MIC [27] of 0.024 µg/mL (≈ 0.0332 µM) and an MIC [28] of 0.024 µg/mL (≈ 0.0332 µM). It also gave an MIC [29] of 0.195 µg/mL (≈ 0.27 µM), an MBC/MIC [30] of 16 and an MBC ([30]; Enterococcus faecalis, read-out: Minimum bactericidal concentration (MBC)) of 6.25 µg/mL (≈ 8.66 µM). For the same compound, the MBC/MIC [31] was 8, the MBC ([31]; Streptococcus pyogenes, ATCC8668, read-out: Minimum bactericidal concentration (MBC)) was 0.39 µg/mL (≈ 0.54 µM) and the MBC/MIC [32] was 2. It also gave an MBC ([32]; Streptococcus pneumoniae, ATCC6303, read-out: Minimum bactericidal concentration (MBC)) of 0.049 µg/mL (≈ 0.0679 µM), an MBC/MIC [33] of 16 and an MBC ([33]; Corynebacterium, LRP24, read-out: Minimum bactericidal concentration (MBC)) of 0.39 µg/mL (≈ 0.54 µM). The MBC/MIC [34] was 16 and the MBC ([34]; Staphylococcus aureus, ATCC6538, read-out: Minimum bactericidal concentration (MBC)) was 3.12 µg/mL (≈ 4.32 µM).
